Data on 75 compounds can be found in the supplement of paper PMC6723410.

One assay deals with GUMC-403. The assay is described as follows: viability at highest tested concentration (max response) relative to DMSO (% of DMSO control); higher = less cytotoxic. The conditions noted are these: library / dose series: MIPE library, 11-point 1:3 dilution; top concentration 23 µM; 48 h. The method, boiled down:
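Plates of 1536 wells were seeded with 700 patient-derived GUMC-403 papilloma cells per well, grown by conditional reprogramming, in 5 μL F + Y medium and kept overnight at 37 °C. Compounds followed at 23 nL by pin tool over an 11-point 1:3 series, for 48 h. After a CellTiter-Glo luminescence read on a ViewLux, signals were set against vehicle wells as 100% and empty wells as 0%. The reported number is viability at the highest tested concentration relative to vehicle control.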
As to `CCCCCCCCCCCCCCCCCCOP(=O)([O-])OC1CC[N+](C)(C)CC1`, the viability is 127.

Still in this assay, the particulars now being: library / dose series: MIPE library, 11-point 1:3 dilution; top concentration 46.1 µM; 48 h.
As for `NC/1=N/C(=O)C2=C([NH]C=C2CCC3=CC=C(C=C3)C(=O)N[C@@H](CCC(O)=O)C(O)=O)N1`, the viability worked out at 119.

Take `O=C1N(c2ccccc2)c2ccccc2C1(Cc1ccncc1)Cc1ccncc1`: the viability is 108.

Regarding `[NH2][Pt]1([NH2])[O]CC(=O)[O]1`, the viability came out at 142.

As to `Cc1coc2c1C(=O)C(=O)c1c-2ccc2c(C)cccc12`, the viability was determined as 115.

With `CC(=O)[C@H]1CC[C@H]2[C@@H]3C/C=C4/C[C@@H](O)CC[C@]4(C)[C@H]3CC[C@]12C`, the viability was 115.

As for `CC(C)c1c(C(=O)Nc2ccccc2)c(-c2ccccc2)c(-c2ccc(F)cc2)n1CC[C@@H](O)C[C@@H](O)CC(=O)[O-]`, the viability came to 70.3.

`C[C@]12CC[C@H]3[C@@H](CCC/4=C/C(=O)CC[C@]34C)[C@@H]1CC[C@@H]2OC(=O)CCC5CCCC5` gave a viability of 102.

For the compound `COc1ccc(C(=O)N2CCCC2=O)cc1`, the viability came to 119.

`CC(C)c1cccc(C(C)C)c1O`: the viability came out at 108.

On to `Cc1nc2ccc(CN(C)c3ccc(C(=O)N[C@@H](CCC(=O)O)C(=O)O)s3)cc2c(=O)[nH]1`, for which the viability came to 116.

As to `Cn1cc(-c2ccncc2)c(-c2ccc(OCc3ccc4ccccc4n3)cc2)n1`, the viability came out at 98.3.

In turn, `CN1CCC(CC1)COC2=CN=C(N=C2)C3=CC(=CC=C3)CN4/N=C(\C=C/C4=O)C5=CC(=CC=C5)C#N` returned a viability of 96.2.

Consider `O=C1C[C@@H](c2ccc(O)cc2)Oc2cc(O)cc(O)c21`, for which the viability is 113.

On to `CCCC1OC2C[C@H]3[C@@H]4CCC5=CC(=O)C=C[C@]5(C)[C@H]4C(O)C[C@]3(C)[C@]2(C(=O)CO)O1` (stereo not given in full), for which the viability was found to be 121.

With `Cc1cc(C(=O)N2CCN(c3cccc(Cl)c3)CC2)n(-c2ccccc2)n1`, the viability was 101.

`N/C1=N/C(=O)C/2=C(NC[C@@H](CNC3=CC=C(C=C3)C(=O)N[C@@H](CCC([O-])=O)C([O-])=O)N2C=O)\N1` had a viability of 132.

In the case of `CCCCC[C@H](O)/C=C/[C@H]1[C@H](O)CC(=O)[C@@H]1C/C=C\CCCC(=O)O`, the viability was found to be 119.

In turn, `CCOc1ccc(Nc2nc(-c3c(C)nc4ccccn34)cs2)cc1` yielded a viability of 101.

In the case of `C[N+]1(C)[C@@H]2CC(OC(=O)C(O)(c3cccs3)c3cccs3)C[C@H]1[C@@H]1O[C@@H]12` (stereo not given in full), the viability was 127.

Turning to `CC1=CC/2=C(C=C1C)N(C[C@@H](O)[C@@H](O)[C@@H](O)CO)C/3=N/C(=O)NC(=O)C3=N2`, the viability was found to be 123.

With `COc1cc(N[S+](=O)([O-])c2ccc(N)cc2)nc(OC)n1`, the viability was determined as 142.

On to `CN1C(=O)C(=C\C2=C1N=C(NC3=CC=CC(=C3)C(O)=O)N=C2)/C4=C(Cl)C=CC=C4Cl`, for which the viability was determined as 148.

`COC1=CC=C2CN(C)CC[C@@]34\C=C/[C@H](O)C[C@@H]3OC1=C24` registered a viability of 122.

The compound `O=[S+]([O-])(O)c1ccc2cc(/N=N/c3cc([S+](=O)([O-])O)c4cccnc4c3O)ccc2c1` displayed a viability of 126.

Take `CCn1c(-c2nonc2N)nc2c(C#CC(C)(C)O)ncc(OC[C@H]3CCCNC3)c21`: the viability is 100.

For the compound `COc1cc(F)c(C(C)C)cc1-c1ccc(C(F)(F)F)cc1CN1C(=O)O[C@H](c2cc(C(F)(F)F)cc(C(F)(F)F)c2)[C@@H]1C`, the viability was 100.

Consider `NC(=O)c1cnccn1`, for which the viability amounted to 131.

As for `CN1CCCN=C1/C=C/c1cccs1.O=C(O)c1cc2ccccc2c(Cc2c(O)c(C(=O)O)cc3ccccc23)c1O`, the viability stood at 79.8.

The compound `CNC1CCC(N(Cc2cccc(-c3ccncc3)c2)C(=O)c2sc3ccccc3c2Cl)CC1` (stereo not given) gave a viability of 110.

`C[C@](N)(Cc1ccc(O)c(O)c1)C(=O)O` returned a viability of 89.6.

`Cn1cc(/C=C/C(=O)c2cccc(F)c2)cc1/C=C/C(=O)NO` showed a viability of 103.

The compound `Clc1ccc(C(c2ccccc2Cl)C(Cl)Cl)cc1` (stereo not given) displayed a viability of 100.

Compound `CC(C)c1ccc2oc3nc(N)c(C(=O)O)cc3c(=O)c2c1` registered a viability of 116.

In turn, `C[C@H]1[C@@H](OC(=O)CCC(=O)O)O[C@@H]2O[C@@]3(C)CC[C@H]4[C@H](C)CC[C@@H]1[C@@]24OO3` gave a viability of 97.7.

In the case of `C1CCN2C[C@H]3C[C@H](\C=C/4CCCN[C@@H]34)[C@H]2C1`, the viability was determined as 120.

For the compound `CN1C(=O)C(=C/2N(C(=O)N(C3CC3)C(=O)C2=C1/NC4=CC=C(I)C=C4F)C5=CC=CC(=C5)NC(C)=O)\C`, the viability came to 87.7.

`CC(C)N(CC[C@H](c1ccccc1)c1cc(CO)ccc1O)C(C)C` gave a viability of 137.

As for `O=C(Nc1cccnc1)N1CCC(Cc2cccc(Oc3ccc(C(F)(F)F)cn3)c2)CC1`, the viability was found to be 112.

In turn, `Nc1cc(c(cc1S(=O)(N)=O)S(N)(=O)=O)C(/Cl)=C(/Cl)Cl` came in with a viability of 105.

Compound `CCCn1c(=O)c2[nH]c(-c3cnn(Cc4cccc(C(F)(F)F)c4)c3)nc2n(CC)c1=O` registered a viability of 119.

`Cn1cnc(-c2cc3nccc(Oc4ccc(NC(=S)NC(=O)Cc5ccccc5)cc4F)c3s2)c1` showed a viability of 96.8.

As for `CN[C@@H](C)[C@H]1[C@H](O)C[C@@]2(C)[C@@H]3CC[C@H]4C(C)(C)[C@@H](NC)CC[C@@]45C[C@@]35CC[C@]12C`, the viability stood at 96.

Consider `O=C(O)c1cccnc1Nc1cccc(C(F)(F)F)c1`, for which the viability was 129.

Regarding `CC1=C(CC/C(C)=C/CCC2=CCC(C3=CC(=O)OC3O)OC2O)C(C)(C)CCC1` (stereo not given), the viability amounted to 99.7.

On to `C[C@H](NC(=O)/C(C#N)=C/c1cccc(Br)n1)c1ccccc1`, for which the viability was 31.7.

Turning to `CC/1=C/N([C@@H]2C[C@@H](O)[C@H](CO)O2)C(=O)NC1=O`, the viability amounted to 117.

`CC(C)Nc1cc(C(F)(F)F)cc2nc(NC(=O)c3cccnc3)nn12` gave a viability of 113.

In the case of `[NH2][Pt]([NH2])([Cl])[Cl]`, the viability is 128.

In the case of `CC(C)[C@H]1C(=O)N[C@H](CO)Cc2c[nH]c3cccc(c23)N1C`, the viability came to 107.

As to `C[C@H](NC(=O)Cc1cc(F)cc(F)c1)C(=O)N[C@@H]1C(=O)N(C)c2ccccc2-c2ccccc21`, the viability was 108.

Regarding `C=C(C)[C@H]1Cc2c(ccc3c2O[C@@H]2COc4cc(OC)c(OC)cc4[C@@H]2C3=O)O1`, the viability was 112.

With `O=C1NC(=O)[C@@H](c2cn3c4c(cccc24)CCC3)[C@@H]1c1c[nH]c2ccccc12`, the viability was 102.

As for `CN(C)c1ccccc1CN1CCCN(Cc2ccccc2N(C)C)C1c1ccncc1`, the viability is 97.4.

As for `COc1ccc(C[C@@H](C)[C@@H](C)Cc2ccc(OC)c(OC)c2)cc1OC`, the viability is 122.

Compound `CCCCn1c(=O)n(Cc2ccccc2F)c(=O)c2nc(Cc3ccc(NC(C)=O)cc3)[nH]c21` showed a viability of 94.

`NCCCC(N)(C(=O)O)C(F)F` (stereo not given): the viability was determined as 114.

`Cc1cccc(/C=N/Nc2cc(N3CCOCC3)nc(OCCc3ccccn3)n2)c1` registered a viability of 87.4.

`Clc2cccc(Cl)c2\N=C1/NCCN1` showed a viability of 132.

As to `FC(F)(F)c1ccc(Nc2nc3cc(Oc4ccnc(-c5ncc(C(F)(F)F)[nH]5)c4)ccc3[nH]2)cc1`, the viability amounted to 97.7.

Regarding `CC1(C)CCC[C@]2(C)[C@H]3CC(=O)O[C@]3(C)CC[C@@H]12`, the viability turned out to be 96.

Turning to `CCOC(=O)[C@@H](N)CCC(=O)N[C@@H](CSCc1ccccc1)C(=O)N[C@@H](C(=O)OCC)c1ccccc1`, the viability was determined as 95.5.

`COC[C@H](c1ccc(C(F)(F)F)cc1)N1CCN(C2(C)CCN(C(=O)c3c(C)ncnc3C)CC2)C[C@H]1C.O=C(O)/C=C\C(=O)O` showed a viability of 57.9.

As for `NC/1=N/[C@]2(COC[C@H]2CS1)C3=CC(=CC=C3F)NC(=O)C4=NC=C(F)C=C4`, the viability turned out to be 117.

`OC(CN1CCC(Cc2ccc(F)cc2)CC1)c1ccc(Cl)cc1` (stereo not given): the viability came to 103.

`COCCOc1nc(-c2ccc(Cl)c(Cl)c2)n(-c2ccc(NC(=O)CCl)cc2)n1` yielded a viability of 85.8.

Compound `O=C1CCc2ccc(OCCCCN3CCN(c4cccc(Cl)c4Cl)CC3)cc2N1` had a viability of 99.5.

For the compound `CN1CCN(CC1)C2=C3OCN(C)N4\C=C(C(O)=O)/C(=O)C(=C34)C=C2F`, the viability stood at 123.

Regarding `CN1CCN(c2ncc(-c3cc(Cl)cc(Cl)c3Cl)c(N)n2)CC1`, the viability is 119.

With `c1ccc(-c2oc3ncnc(NC[C@@H]4CCCO4)c3c2-c2ccccc2)cc1`, the viability amounted to 100.

As to `C[C@@H]1C/C=C/C=C/C=C/C=C/[C@@H](O[C@@H]2O[C@H](C)[C@@H](O)[C@H](N)[C@@H]2O)C[C@@H]2O[C@](O)(C[C@@H](O)C[C@@H]3O[C@H]3/C=C/C(=O)O1)C[C@H](O)[C@H]2C(=O)O`, the viability amounted to 104.

`Cc1cc(SCc2sc(-c3ccc(C(F)(F)F)c(F)c3)nc2C)ccc1OCC(=O)O` came in with a viability of 127.

In the case of `CN1\C=N/C2=CC=C(NC3=CC(=CC=C3C)NC(=O)C4=CC(=CC=C4)C(C)(C)C#N)C=C2C1=O`, the viability was 96.2.

As for `N[C@@H](Cc1ccc(O)c(O)c1)C(=O)O`, the viability was 133.

The assay is the same for the next values; noted with them: library / dose series: MIPE library, 11-point 1:3 dilution; top concentration 92.2 µM; 48 h.
In turn, `COc1ccc(-c2c(-c3ccc(O)cc3O)n[nH]c2C)cc1` returned a viability of 98.3.
